From the CheMixHub ionic liquid set

Assay: xn = mol fraction of the nth substance listed

CCCC[N+](C)(CCCC)CCCC.[Cl-] + OC[C@H]1O[C@@](CO)(O[C@H]2O[C@H](CO)[C@@H](O)[C@H](O)[C@H]2O)[C@@H](O)[C@@H]1O + O
viscosity [mPa·s], 101.3 kPa
Conditions	293.15 K	298.15 K	303.15 K	308.15 K	313.15 K
x2 = 0, x1 = 0.0003423	1.011	0.904	0.806	0.729	0.662
x2 = 0, x1 = 0.0007203	–	–	–	–	0.672
x2 = 0, x1 = 0.001062	1.036	0.931	0.826	0.747	0.686
x2 = 0, x1 = 0.00144	–	–	–	–	0.695
x2 = 0.0003599, x1 = 0.0003421	1.027	0.917	0.817	0.737	0.668
x2 = 0.0003616, x1 = 0.00072	1.041	0.928	0.824	0.746	0.68
x2 = 0.0003631, x1 = 0.001062	1.057	0.948	0.839	0.758	0.695
x2 = 0.0003647, x1 = 0.001439	1.069	0.962	0.857	0.773	0.706
x2 = 0.0007214, x1 = 0.000342	1.052	0.937	0.83	0.747	0.677
x2 = 0.0007247, x1 = 0.0007198	1.069	0.948	0.839	0.759	0.692
x2 = 0.0007277, x1 = 0.001061	1.084	0.968	0.855	0.773	0.709
x2 = 0.000731, x1 = 0.001438	1.096	0.984	0.871	0.786	0.718
x2 = 0.001083, x1 = 0.0003419	1.071	0.952	0.845	0.761	0.689
x2 = 0.001088, x1 = 0.0007195	1.088	0.965	0.854	0.772	0.701
x2 = 0.001092, x1 = 0.001061	1.105	0.994	0.872	0.785	0.718
x2 = 0.001097, x1 = 0.001438	1.118	1.007	0.89	0.8	0.729
x2 = 0.001444, x1 = 0.0003418	1.093	0.971	0.86	0.774	0.701
x2 = 0.00145, x1 = 0.0007192	1.11	0.984	0.87	0.786	0.712
x2 = 0.001456, x1 = 0.001061	1.126	1.009	0.889	0.799	0.73
x2 = 0.001463, x1 = 0.001437	1.141	1.025	0.908	0.816	0.741
x2 = 0.001804, x1 = 0.0003416	1.115	0.987	0.875	0.788	0.713
x2 = 0.001813, x1 = 0.000719	1.134	1.001	0.885	0.798	0.726
x2 = 0.00182, x1 = 0.00106	1.153	1.025	0.905	0.814	0.744
x2 = 0.001828, x1 = 0.001437	1.166	1.042	0.925	0.829	0.76
x2 = 0.002163, x1 = 0.0003415	1.137	1.006	0.89	0.802	0.725
x2 = 0.002173, x1 = 0.0007187	1.155	1.02	0.901	0.811	0.734
x2 = 0.002176, x1 = 0.00106	1.171	1.044	0.922	0.828	0.754
x2 = 0.002192, x1 = 0.001436	1.182	1.059	0.941	0.841	0.762
x2 = 0.002532, x1 = 0.0003414	1.153	1.027	0.904	0.806	0.734
x2 = 0.002546, x1 = 0.0007185	1.176	1.038	0.916	0.822	0.754
x2 = 0.00256, x1 = 0.001436	1.203	1.075	0.957	0.859	0.775
x2 = 0.002561, x1 = 0.001059	1.187	1.058	0.934	0.842	0.766

CC[N+](CC)(CC)CC.[Cl-] + Oc1ccccc1
viscosity [mPa·s], 101 kPa
Conditions	303.15 K	323.15 K
x1 = 0.2	34.1	14.34
x1 = 0.25	38.6	–

CCCC[n+]1ccn(C)c1.N#C[S-] + [Br-].[Li+] + CN1CCCC1=O
298.15 K, 101 kPa
Conditions	viscosity [mPa·s]
x1 = 0.001086, x2 = 0.02623	2.384
x1 = 0.001092, x2 = 0.05108	3.161
x1 = 0.001138, x2 = 0.07527	4.38
x1 = 0.002508, x2 = 0.07516	4.412
x1 = 0.002857, x2 = 0.02618	2.408
x1 = 0.003083, x2 = 0.05098	3.197
x1 = 0.004195, x2 = 0.07504	4.452
x1 = 0.004231, x2 = 0.02614	2.429
x1 = 0.004315, x2 = 0.05092	3.225
x1 = 0.005622, x2 = 0.05085	3.261
x1 = 0.005708, x2 = 0.02611	2.45
x1 = 0.006129, x2 = 0.07489	4.48
x1 = 0.007405, x2 = 0.02606	2.464
x1 = 0.007466, x2 = 0.07479	4.509
x1 = 0.007731, x2 = 0.05075	3.29
x1 = 0.008848, x2 = 0.07469	4.531
x1 = 0.008873, x2 = 0.02602	2.492
x1 = 0.009097, x2 = 0.05068	3.316
x1 = 0.01032, x2 = 0.07458	4.563
x1 = 0.01035, x2 = 0.02598	2.521
x1 = 0.01065, x2 = 0.0506	3.345
x1 = 0.01201, x2 = 0.02594	2.555
x1 = 0.01214, x2 = 0.05052	3.376
x1 = 0.01216, x2 = 0.07444	4.604

CCCC[n+]1ccn(C)c1.N#C[S-] + [Cl-].[Li+] + CN1CCCC1=O
298.15 K, 101 kPa
Conditions	viscosity [mPa·s]
x1 = 0.000959, x2 = 0.03815	2.65
x1 = 0.001063, x2 = 0.07221	3.61
x1 = 0.001192, x2 = 0.104	4.991
x1 = 0.002304, x2 = 0.07212	3.657
x1 = 0.002399, x2 = 0.03809	2.683
x1 = 0.00252, x2 = 0.1039	5.021
x1 = 0.003854, x2 = 0.03804	2.715
x1 = 0.003994, x2 = 0.072	3.706
x1 = 0.00415, x2 = 0.1037	5.048
x1 = 0.005535, x2 = 0.03797	2.75
x1 = 0.005737, x2 = 0.1036	5.082
x1 = 0.005932, x2 = 0.07186	3.734
x1 = 0.006974, x2 = 0.07178	3.765
x1 = 0.007127, x2 = 0.1034	5.104
x1 = 0.007392, x2 = 0.0379	2.777
x1 = 0.008668, x2 = 0.1032	5.141
x1 = 0.008714, x2 = 0.07165	3.796
x1 = 0.009327, x2 = 0.03783	2.805
x1 = 0.009861, x2 = 0.07157	3.834
x1 = 0.009986, x2 = 0.1031	5.166
x1 = 0.01105, x2 = 0.03776	2.846
x1 = 0.01164, x2 = 0.1029	5.198
x1 = 0.01191, x2 = 0.07142	3.877
x1 = 0.01372, x2 = 0.03766	2.869

CC(=O)[O-].CC[n+]1ccn(C)c1 + [Cl-].[NH4+]
101 kPa, x2 = 0
Conditions	electrical conductivity [S/m]	viscosity [mPa·s]
308.15 K	0.473	71.3
318.15 K	0.76	44.2

CCCC[n+]1ccn(C)c1.N#C[N-]C#N + [I-].[Li+]
101 kPa, x1 = 1
Conditions	electrical conductivity [S/m]
288.15 K	0.611
298.15 K	0.883
333.15 K	2.18

CC(=O)[O-].CC[n+]1ccn(C)c1 + [N-]=C=S.[NH4+]
313.15 K, 101 kPa, x2 = 0
Conditions	electrical conductivity [S/m]	viscosity [mPa·s]
–	0.6	56.4

CCCC[P+](CCCC)(CCCC)CCCC.CS(=O)(=O)[O-] + c1c[nH]cn1
101.33 kPa, x1 = 0.5
Conditions	viscosity [mPa·s]
313.05 K	100
353.05 K	21.6

CCCC[n+]1ccn(C)c1.N#C[S-] + c1ccccc1
viscosity [mPa·s], 100 kPa
Conditions	x2 = 0	x2 = 0.2334	x2 = 0.258	x2 = 0.3919	x2 = 0.5094
298.15 K	62.8	33	30.7	20.1	12.51
308.15 K	40.6	22.5	21.1	14.29	9.27
318.15 K	27.8	16.2	15.23	10.64	7.16
328.15 K	20.1	12.19	11.52	8.25	5.65

CCCC[n+]1ccn(C)c1.N#C[S-] + c1ccsc1
viscosity [mPa·s], 100 kPa
Conditions	x2 = 0	x2 = 0.103	x2 = 0.143	x2 = 0.246	x2 = 0.61	x2 = 0.701
298.15 K	57.4	47.2	42.9	32	13.36	9.93
308.15 K	37.4	31.4	28.7	22	9.94	7.57
318.15 K	25.8	22.1	20.4	15.96	7.67	5.96
328.15 K	18.7	16.22	15.07	12.02	6.1	4.83
